Tested on: IL-1β production in PMA-differentiated THP-1 cells
Experiment: IL-1β production in PMA-differentiated THP-1 cells stimulated with gramicidin (hTHP-1 assay, HTRF readout; Procedures 1-3)
Type: cell-based, human
Details: Homo sapiens, THP-1, hTHP-1 assay containing 2% fetal bovine serum; average; class symbols; read-out: hTHP-1 IC50 (Average IC50 of compounds in hTHP-1 assay)
Procedure, shortened: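 PMA-differentiated (20 ng/ml, 16-18 h) THP-1 cells in RPMI with 2% FBS, 50,000 cells/well, preincubated 1 h with compound (final 0.0017-100 μM, 0.37% DMSO), then stimulated with 5 μM gramicidin for 2 h. IL-1β in cell-free supernatant measured by HTRF (620/668 nm).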

Row | Structure (SMILES) | IC50
1 | CC(C)(O)c1ncc(S(N)(=O)=NC(=O)Nc2c3c(c(OC(F)F)c4c2CCC4)CCC3)s1 (stereo not drawn) [Example 27, N′-(8-(difluoromethoxy)-1,2,3,5,6,7-hexahydro-s-indacen-4-ylcarbainoyl)-2-(2-hydroxypropan-2-yl)thiazole-5-sulfonimidamide] | 0.2 to 1 µM
2 | Cc1oc(S(N)(=O)=NC(=O)Nc2c3c(nc4c2CCC4)CCC3)cc1C(C)(C)O (stereo not drawn) [Example 221, N′-((1,2,3,5,6,7-hexahydrodicyclopenta[b,e]pyridin-8-yl)carbamoyl)-4-(2-hydroxypropan-2-yl)-5-methylfuran-2-sulfonimidamide] | 0.04 to 0.2 µM
3 | COc1cc(CN(C)C)ccc1S(N)(=O)=NC(=O)Nc1c2c(cc3c1CCC3)CCC2 (stereo not drawn) [Example 272, 4-((Dimethylamino)methyl)-N′-((1,2,3,5,6,7-hexahydro-s-indacen-4-yl)carbamoyl)-2-methoxybenzenesulfonimidamide] | 0.2 to 1 µM
4 | CC(C)c1ccc(C#N)c(C(C)C)c1NC(=O)N=S(N)(=O)c1ccc(C(C)(C)O)s1 (stereo not drawn) [Example 254, N′-((3-cyano-2,6-diisopropylphenyl)carbamoyl)-5-(2-hydroxypropan-2-yl)thiophene-2-sulfonimidamide] | 1 to 5 µM
5 | CC(C)c1cc(OC(F)F)cc(C2CC2)c1NC(=O)N=S(N)(=O)c1ccc(C(C)(C)O)cc1F (single isomer, unassigned) [Example 166, (S)- or (R)-N′-((2-cyclopropyl-4-(difluoromethoxy)-6-isopropylphoxyproyl)-2-fluoro-4-(2-hydroxypropan-2-yl)benzenesulfonimidamide] | 0.2 to 1 µM
7 | COCCN(C)Cc1ccc(S(N)(=O)=NC(=O)Nc2c3c(cc4c2CCC4)CCC3)cc1 (single isomer, unassigned) [Example 390, (R) or (S)-N′-((1,2,3,5,6,7-hexahydro-s-indacen-4-yl)carbamoyl)-4-(((2-methoxyethyl)(meth-yl)amino)methyl)benzene-sulfonimidamide] | 1 to 5 µM

More lines, now with the values ahead:

Row | IC50 | Structure (SMILES)
8 | 5 to 30 µM | CC(C)c1cc(F)cc(C(C)C)c1NC(=O)N=S(N)(=O)c1cccnc1 (stereo not drawn) [Example 215, N′-((4-fluoro-2,6-diisopropylphenyl)carbamoyl)pyridine-3-sulfonimidamide]
9 | 1 to 5 µM | C#CCCC(=O)N(C)Cc1ccc(S(N)(=O)=NC(=O)Nc2c3c(cc4c2CCC4)CCC3)cc1 (stereo not drawn) [Example 261, N-(4-(N′-((1,2,3,5,6,7-hexahydro-s-indacen-4-yl)carbamoyl)sulfamidimidoyl)benzyl)-N-methylpent-4-ynamide]
10 | 1 to 5 µM | CN1CCc2ccc(S(=N)(=O)NC(=O)Nc3c4c(cc5c3CCC5)CCC4)cc2C1 (stereo not drawn) [Example 271, N-(1,2,3,5,6,7-hexahydro-s-indacen-4-ylcarbamoyl)-2-methyl-1,2,3,4-tetrahydroisoquinoline-7-sulfonimidamide]
11 | 1 to 5 µM | CN(C)Cc1cccc(S(N)(=O)=NC(=O)Nc2c3c(cc4c2CCC4)CCC3)c1 (stereo not drawn) [Example 51, 3-((dimethylamino)methyl)-N′-(1,2,3,5,6,7-hexahydro-s-indacen-4-ylcarbamoyl)benzene-sulfonimidamide]
12 | 1 to 5 µM | CC(C)c1cc(F)cc(C(C)C)c1NC(=O)N=S(N)(=O)c1ccc(CN(C)C)cc1 (stereo not drawn) [Example 36, 4-((dimethylamino)methyl)-N′-(4-fluoro-2,6-diisopropylphenylcarbamoyl)-benzenesulfoniniidamide]
14 | 5 to 30 µM | CCc1ccc2cnn(C)c2c1NC(=O)N=S(N)(=O)c1ncc(C(C)(C)O)s1 (stereo not drawn) [Example 255, N′-((6-ethyl-1-methyl-1H-indazol-7-yl)carbamoyl)-5-(2-hydroxypropan-2-yl)thiazole-2-sulfonimidamide]
15 | 5 to 30 µM | Cc1cc(S(N)(=O)=NC(=O)Nc2c(C(C)C)cc(F)cc2C(C)C)c(C)o1 (stereo not drawn) [Example 217, N′-((4-fluoro-2,6-diisopropylphenyl)carbamoyl)-2,5-dimethylfuran-3-sulfonimidamide]
16 | 5 to 30 µM | Cc1ccc(S(N)(=O)=NC(=O)Nc2c(C(C)C)cc(F)cc2C(C)C)nc1 (stereo not drawn) [Example 220, N′-((4-fluoro-2,6-diisopropylphenyl)carbamoyl)-5-methylpyridine-2-sulfonimidamide]
17 | 1 to 5 µM | NCc1ccc(S(N)(=O)=NC(=O)Nc2c3c(cc4c2CCC4)CCC3)cc1 (single isomer, unassigned) [Example 411, (R) or (S)-4-(aminomethyl)-N′-((1,2,3,5,6,7-hexahydro-s-indacen-4-yl)carbamoyl)benzene-sulfonimidamide]

Same assay, conditions: Homo sapiens, THP-1, hTHP-1 assay containing 2% fetal bovine serum; average; given as bound; read-out: hTHP-1 IC50 (Average IC50 of compounds in hTHP-1 assay)

Row | Structure (SMILES) | IC50
18 | CCc1ccc2cnn(C)c2c1NC(=O)N=S(N)(=O)c1ncc(C(C)(C)O)s1 (single isomer, unassigned) [Example 327, (S) or (R)-N′-((6-ethyl-1-methyl-1H-indazol-7-yl)carbamoyl)-5-(2-hydroxypropan-2-yl)thiazole-2-sulfonimidamide] | > 30 µM
19 | CC(C)c1cc(F)cc(C(C)C)c1NC(=O)N=S(N)(=O)c1ccc2c(c1)OCO2 (stereo not drawn) [Example 216, N′-((4-fluoro-2,6-diisopropyl-phenyl)carbamoyl)benzo[d][1,3]dioxole-5-sulfonimidamide] | > 30 µM
20 | CC(C)c1ccc(S(N)(=O)=NC(=O)Nc2c3c(cc4c2CCC4)CCC3)cn1 (single isomer, unassigned) [Example 401, (R) or (S)-N′-((1,2,3,5,6,7-hexahydro-s-indacen-4-yl)carbamoyl)-6-isopropylpyridine-3-sulfonimidamide] | > 30 µM

The next lines start with the values.

Row | IC50 | Structure (SMILES)
21 | > 30 µM | CC(C)c1cc(F)cc(C(C)C)c1NC(=O)N=S(N)(=O)c1cnc2n1CCC2 (stereo not drawn) [Example 219, N′-((4-fluoro-2,6-diisopropylphenyl)carbamoyl)-6,7-dihydro-5H-pyrrolo[1,2-a]imidazole-3-sulfonimidamide]
22 | > 30 µM | CCc1ccc2cn(C)nc2c1NC(=O)N=S(N)(=O)c1ncc(C(C)(C)O)s1 (stereo not drawn) [Example 256, N′-((6-ethyl-2-methyl-2H-indazol-7-yl)carbamoyl)-5-(2-hydroxypropan-2-yl)thiazole-2-sulfonimidamide]

Same assay, conditions: Homo sapiens, THP-1, hTHP-1 assay containing 2% fetal bovine serum; average; numeric bound printed without unit; read-out: hTHP-1 IC50 (Average IC50 of compounds in hTHP-1 assay)

Row | IC50 | Structure (SMILES)
23 | > 11.2 µM | CC(C)c1cc(OC(F)F)cc(C2CC2)c1NC(=O)N=S(N)(=O)c1ccc(C(C)(C)O)cc1F (single isomer, unassigned) [Example 167, (R)- or (S)-N′-((2-cyclopropyl-4-(difluoromethoxy)-6-isopropylphenyl)carbamoyl)-2-fluoro-4-(2-hydroxypropan-2-yl)benzenesulfonimidamide]

Same assay, conditions: hTHP-1 assay containing 2% fetal bovine serum; average; class symbols; read-out: hTHP-1 IC50 (Average IC50 of compounds in hTHP-1 assay)

Row | IC50 | Structure (SMILES)
24 | 1 to 5 µM | C#CCCC(=O)N(C)Cc1ccc(S(N)(=O)=NC(=O)Nc2c3c(cc4c2CCC4)CCC3)cc1 (single isomer, unassigned) [Example 313, (R) or (S)-N-(4-(N′-((1,2,3,5,6,7-hexahydro-s-indacen-4-yl)carbamoyl)sulfamid-imidoyl)benzyl)-N-methylpent-4-ynamide]

— patent US10654816B2, “Compounds and compositions for treating conditions associated with NLRP activity” (NOVARTIS INFLAMMASOME RESEARCH, INC., priority 2017, dated 2020)
